IC50 data for 21 compounds are collected here from US9120749B2, “Quinoline derivatives and MELK inhibitors containing the same” (ONCOTHERAPY SCIENCE, INC., priority 2010, dated 2015).

Molecules are shown by their SMILES.

For one test, the system named is DU4475 cells. Kind of test: Cell-based assay: anti-proliferative activity, Cell Counting Kit-8, 72 hours (DU4475). Conditions: Homo sapiens, DU-4475, 72 h. (Tetrazolium assays rely on reduction of a dye to a coloured formazan, in cell work by metabolically active cells.)
For another test, the system named is HT-1197 cells. Kind of test: Cell-based assay: anti-proliferative activity, Cell Counting Kit-8, 72 hours (HT-1197, negative control without MELK expression). The settings on record: Homo sapiens, HT1197, 72 h, HT1197 cells (negative control, no MELK expression), 72 hours. In a few lines:
(§1)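 Target-specific cytotoxicity: seeded cells treated with MELK inhibitor candidates for 72 h, proliferation quantified via CCK-8, IC50 fitted.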

Another test concerns A549 cells. Nature of the test: Cell-based assay: anti-proliferative activity, Cell Counting Kit-8, 72 hours (A549). The settings on record: Homo sapiens, A549, 72 h, 72 hours. In a few lines:
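A549 cells seeded in 96-well plates and exposed to candidate inhibitors for 72 hours. Growth measured with Cell Counting Kit-8; IC50 values calculated from the dose response.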

For another test, the target named is MELK (Homo sapiens, UniProt Q14680). Nature of the test: Kinase assay: MELK activity, phosphorylation of FITC-labeled histone H3 peptide measured by IMAP fluorescence polarization. It is filed as biochemical. Conditions: read-out: IC50 (μM) (kinase assay). The gist of the method: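 Polarization of fluorescence served as the signal for MELK turnover of FITC-conjugated histone H3 peptide. Binding solution quenched each reaction, and plates stood 0.5 hour at room temperature before reading.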
(In general: Fluorescence polarisation rises when a labelled molecule tumbles more slowly, as on binding a larger partner.)

The subject of a further test is T47D cells. Kind of test: Cell-based assay: anti-proliferative activity, Cell Counting Kit-8, 72 hours (T47D). The settings on record: Homo sapiens, T47D, 72 h. In a few lines: as §1

Chain of MELK (Q14680 whole entry, looked up): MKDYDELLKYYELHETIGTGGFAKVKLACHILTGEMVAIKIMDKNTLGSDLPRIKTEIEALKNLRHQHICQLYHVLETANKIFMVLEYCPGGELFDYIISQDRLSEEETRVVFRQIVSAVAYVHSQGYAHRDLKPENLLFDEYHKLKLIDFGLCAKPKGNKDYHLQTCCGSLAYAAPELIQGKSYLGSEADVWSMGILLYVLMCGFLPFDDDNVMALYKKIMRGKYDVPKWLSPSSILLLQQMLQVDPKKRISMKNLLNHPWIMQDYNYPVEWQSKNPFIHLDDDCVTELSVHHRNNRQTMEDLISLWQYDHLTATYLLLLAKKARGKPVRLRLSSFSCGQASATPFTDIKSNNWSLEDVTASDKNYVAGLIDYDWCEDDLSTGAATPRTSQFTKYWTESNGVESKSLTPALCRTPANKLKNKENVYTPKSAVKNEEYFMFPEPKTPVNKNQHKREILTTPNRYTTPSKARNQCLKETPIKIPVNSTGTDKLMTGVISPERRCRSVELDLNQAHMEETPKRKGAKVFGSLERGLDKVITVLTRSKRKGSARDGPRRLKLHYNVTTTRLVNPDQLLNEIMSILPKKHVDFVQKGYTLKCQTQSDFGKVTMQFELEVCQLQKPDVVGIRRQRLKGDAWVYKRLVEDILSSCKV

The term IC50 denotes the point on the concentration scale where inhibition reaches its midpoint. Consider `CC(=O)c1cnc2ccc(-c3cc(Cl)c(O)c(Cl)c3)cc2c1Nc1ccc(N2CCCC(N)C2)nc1` (stereo not drawn) [Example 681, 1-(4-(6-(3-aminopiperidin-1-yl)pyridin-3-ylamino)-6-(3,5-dichloro-4-hydroxyphenyl)quinolin-3-yl)ethanone], for which the IC50 with DU4475 cells is 0.0085 µM; with HT-1197 cells, 0.25 µM; in the test with A549 cells, 0.017 µM; on MELK it was 0.00086 µM; in the test on T47D cells it was 0.0046 µM.

With `O=C(c1cnc2ccc(-c3cc(Cl)c(O)c(Cl)c3)cc2c1Nc1ccc(NCCO)nc1)C1CC1` [Example 678, cyclopropyl(6-(3,5-dichloro-4-hydroxyphenyl)-4-(6-(2-hydroxyethylamino)pyridin-3-ylamino)quinolin-3-yl)methanone], the 50% inhibitory concentration (IC50) with DU4475 cells turned out to be 0.11 µM; with HT-1197 cells, 5.1 µM; in the test on A549 cells it was 1.2 µM; on MELK, 0.011 µM; with T47D cells, 0.41 µM.

Turning to `CC(=O)c1cnc2ccc(-c3cc(F)c(O)c(F)c3)cc2c1N[C@H]1CC[C@H](CN(C)C)CC1` [Example 721], the IC50 came to 0.22 µM in the test on DU4475 cells; 3.4 µM with HT-1197 cells; 0.32 µM with A549 cells; 0.035 µM at MELK; 0.15 µM in the test with T47D cells.

On to `CN(CCO)C[C@H]1CC[C@H](Nc2c(C(=O)C3CC3)cnc3ccc(-c4cc(Cl)c(O)c(Cl)c4)cc23)CC1` [Example 634], for which the IC50 with DU4475 cells was found to be 0.042 µM; in the test with HT-1197 cells, 0.75 µM; in the test with A549 cells, 0.095 µM; at MELK, 0.0008 µM; in the test on T47D cells, 0.099 µM.

Regarding `CCC(=O)c1cnc2ccc(-c3cc(F)c(O)c(Cl)c3)cc2c1Nc1ccc(N2CCN(C)CC2)nc1` [Example 736, 1-(6-(3-chloro-5-fluoro-4-hydroxyphenyl)-4-(6-(4-methylpiperazin-1-yl)pyridin-3-ylamino)quinolin-3-yl)propan-1-one], the IC50 in the test with DU4475 cells is 0.19 µM; in the test with HT-1197 cells it was 10 µM; with A549 cells it was 0.22 µM; on MELK, 0.036 µM; in the test on T47D cells it was 0.14 µM.

Take `CN(C)C[C@]1(O)CC[C@@H](Nc2c(C(=O)C3CC3)cnc3ccc(-c4cc(Cl)c(O)c(Cl)c4)cc23)CC1` [Example 652, cyclopropyl(6-(3,5-dichloro-4-hydroxyphenyl)-4-((cis-4-((dimethylamino)methyl)-4-hydroxycyclohexyl)amino)quinolin-3-yl)methanone]: the IC50 in the test on DU4475 cells was 0.051 µM; in the test with HT-1197 cells it was 1.4 µM; in the test with A549 cells, 0.15 µM; on MELK, 0.0011 µM; in the test on T47D cells, 0.15 µM.

Consider `COc1cc(-c2ccc3ncc(C(=O)C(C)C)c(Nc4ccc(CN(C)C)cc4)c3c2)cc(Cl)c1O` [Example 640, 1-(6-(3-chloro-4-hydroxy-5-methoxyphenyl)-4-(4-((dimethylamino)methyl)phenylamino)quinolin-3-yl)-2-methylpropan-1-one], for which the IC50 with DU4475 cells came to 0.52 µM; in the test with HT-1197 cells, 0.82 µM; with A549 cells, 0.61 µM; at MELK it was 0.027 µM; with T47D cells, 0.54 µM.

As to `COc1cc(-c2ccc3ncc(C(C)=O)c(Nc4ccc(N5CCCC(N)C5)nc4)c3c2)cc(Cl)c1O` (stereo not drawn) [Example 688, 1-(4-(6-(3-aminopiperidin-1-yl)pyridin-3-ylamino)-6-(3-chloro-4-hydroxy-5-methoxyphenyl)quinolin-3-yl)ethanone], the IC50 turned out to be 0.11 µM in the test with DU4475 cells; 1.7 µM in the test on HT-1197 cells; 0.23 µM with A549 cells; 0.0032 µM on MELK; 0.056 µM in the test with T47D cells.

`CC(=O)c1cnc2ccc(-c3cc(F)c(O)c(Cl)c3)cc2c1N[C@@H]1CC[C@@H](CN(C)C)C1` [Example 717, 1-(6-(3-chloro-5-fluoro-4-hydroxyphenyl)-4-((1R,3R)-3-((dimethylamino)methyl)cyclopentylamino)quinolin-3-yl)ethanone]: the IC50 in the test with DU4475 cells amounted to 0.34 µM; in the test on HT-1197 cells it was 2 µM; with A549 cells, 0.65 µM; at MELK, 0.011 µM; with T47D cells it was 0.42 µM.

Take `CN(C)CCOc1ccc(Nc2c(C(=O)C3CC3)cnc3ccc(-c4cc(Cl)c(O)c(Cl)c4)cc23)cn1` [Example 711, Cyclopropyl(6-(3,5-dichloro-4-hydroxyphenyl)-4-(6-(2-(dimethylamino)ethoxy)pyridin-3-ylamino)quinolin-3-yl)methanone]: the IC50 in the test with DU4475 cells amounted to 0.073 µM; with HT-1197 cells, 5.7 µM; in the test with A549 cells, 0.11 µM; on MELK, 0.0032 µM; in the test on T47D cells, 0.22 µM.

For `NCCOc1ccc(Nc2c(C(=O)C3CC3)cnc3ccc(-c4cc(Cl)c(O)c(Cl)c4)cc23)cn1` [Example 723, (4-(6-(2-Aminoethoxy)pyridin-3-ylamino)-6-(3,5-dichloro-4-hydroxyphenyl)quinolin-3-yl)(cyclopropyl)methanone], the IC50 amounted to 0.028 µM in the test with DU4475 cells; 2.1 µM in the test on HT-1197 cells; 0.23 µM with A549 cells; 0.0019 µM at MELK; 0.099 µM in the test on T47D cells.

On to `CC(=O)c1cnc2ccc(-c3cc(Cl)c(O)c(Cl)c3)cc2c1Nc1ccc2c(c1)CCC2N(C)C` (stereo not drawn) [Example 720, 1-(6-(3,5-dichloro-4-hydroxyphenyl)-4-((1-(dimethylamino)-2,3-dihydro-1H-inden-5-yl)amino)quinolin-3-yl)ethanone], for which the IC50 in the test on DU4475 cells was determined as 0.032 µM; in the test with HT-1197 cells, 0.38 µM; in the test with A549 cells, 0.063 µM; on MELK, 0.0033 µM; with T47D cells it was 0.059 µM.

`COc1cc(-c2ccc3ncc(C(=O)C4CC4)c(NC4CCNCC4)c3c2)cc(Cl)c1O` [Example 727, (6-(3-chloro-4-hydroxy-5-methoxyphenyl)-4-(piperidin-4-ylamino)quinolin-3-yl)(cyclopropyl)methanone]: the 50% inhibitory concentration (IC50) was determined as 0.14 µM in the test on DU4475 cells; 1.1 µM with HT-1197 cells; 0.19 µM in the test with A549 cells; 0.0034 µM at MELK; 0.37 µM in the test with T47D cells.

As for `CN(C)C1CCN(c2ccc(Nc3c(C(=O)C4CC4)cnc4ccc(-c5cc(Cl)c(O)c(Cl)c5)cc34)cn2)C1` (stereo not drawn) [Example 690, cyclopropyl(6-(3,5-dichloro-4-hydroxyphenyl)-4-(6-(3-(dimethylamino)pyrrolidin-1-yl)pyridin-3-ylamino)quinolin-3-yl)methanone], the IC50 came out at 0.19 µM in the test with DU4475 cells; 4 µM in the test with HT-1197 cells; 0.3 µM with A549 cells; 0.0047 µM at MELK; 0.25 µM with T47D cells.

Take `NCCOc1ccc(Nc2c(C(=O)C3CC3)cnc3ccc(-c4cc(F)c(O)c(Cl)c4)cc23)cn1` [Example 724, (4-(6-(2-Aminoethoxy)pyridin-3-ylamino)-6-(3-chloro-5-fluoro-4-hydroxyphenyl)quinolin-3-yl)(cyclopropyl)methanone]: the IC50 worked out at 0.035 µM in the test with DU4475 cells; 2.8 µM in the test with HT-1197 cells; 0.23 µM in the test with A549 cells; 0.0055 µM at MELK; 0.07 µM with T47D cells.

Consider `COc1cc(-c2ccc3ncc(C(=O)C4CC4)c(Nc4ccc(N5CCC[C@H](N)C5)nc4)c3c2)cc(Cl)c1O` [Example 660, (S)-(4-(6-(3-aminopiperidin-1-yl)pyridin-3-ylamino)-6-(3-chloro-4-hydroxy-5-methoxyphenyl)quinolin-3-yl)(cyclopropyl)methanone], for which the IC50 was found to be 0.046 µM with DU4475 cells; 2.9 µM in the test with HT-1197 cells; 0.22 µM with A549 cells; 0.0024 µM at MELK; 0.1 µM with T47D cells.

On to `CN(C)CCOc1ccc(Nc2c(C(=O)C3CC3)cnc3ccc(-c4cc(F)c(O)c(Cl)c4)cc23)cn1` [Example 710, (6-(3-Chloro-5-fluoro-4-hydroxyphenyl)-4-(6-(2-(dimethylamino)ethoxy)pyridin-3-ylamino)quinolin-3-yl)(cyclopropyl)methanone], for which the IC50 in the test on DU4475 cells stood at 0.083 µM; in the test with HT-1197 cells, 2 µM; in the test on A549 cells, 0.09 µM; on MELK, 0.0069 µM; in the test with T47D cells it was 0.15 µM.

On to `COc1cc(-c2ccc3ncc(C(C)=O)c(N[C@H]4CC[C@H](CN5CCCC5)CC4)c3c2)cc(Cl)c1O` [Example 734], for which the IC50 in the test on DU4475 cells is 0.36 µM; in the test with HT-1197 cells, 6.4 µM; in the test on A549 cells it was 0.25 µM; at MELK, 0.0016 µM; with T47D cells, 0.51 µM.

Turning to `COc1cc(-c2ccc3ncc(C(=O)C4CC4)c(N[C@H]4CC[C@H](CN5CCC(O)C5)CC4)c3c2)cc(Cl)c1O` (stereo partly drawn) [Example 630], the IC50 in the test with DU4475 cells is 0.17 µM; in the test with HT-1197 cells, 3.6 µM; in the test on A549 cells, 0.19 µM; on MELK, 0.0023 µM; in the test on T47D cells, 0.41 µM.

As for `COc1cc(-c2ccc3ncc(C(=O)C4CC4)c(Nc4ccc(N5CCC(N(C)C)C5)nc4)c3c2)cc(Cl)c1O` (stereo not drawn) [Example 689], the IC50 in the test with DU4475 cells was determined as 3.2 µM; in the test with HT-1197 cells it was 9.4 µM; with A549 cells it was 1.5 µM; on MELK, 0.013 µM; with T47D cells, 0.28 µM.

`CC(=O)c1cnc2ccc(-c3cc(Cl)c(O)c(Cl)c3)cc2c1Nc1ccc(CN2CCN(C)CC2)cc1` [Example 654, 1-(6-(3,5-dichloro-4-hydroxyphenyl)-4-(4-((4-methylpiperazin-1-yl)methyl)phenylamino)quinolin-3-yl)ethanone]: the IC50 came out at 0.11 µM with DU4475 cells; 8.7 µM in the test on HT-1197 cells; 0.19 µM in the test on A549 cells; 0.0082 µM at MELK; 0.091 µM in the test on T47D cells.
